Measurements published in patent US20230398178A1, “METHODS AND COMPOSITIONS FOR TREATING OR PREVENTING A VAGINAL INFECTION OF GARDNERELLA VAGINALIS” (Massachusetts Institute of Technology, priority 2022, published 2023).
Entries after “also recorded” stand apart in the source; their conditions may differ.

Legend:
[1] = tested on: Gardnerella vaginalis 49145; experiment: Biofilm formation of G. vaginalis 49145 (CFU assay); assay type: cell-based
[2] = tested on: Gardnerella vaginalis ATCC 14018 mature biofilms; experiment: Disruption of established G. vaginalis biofilms (CFU of biofilm and supernatant fractions); assay type: cell-based; conditions: for viable cell counts in supernatant / biofilm fractions, in words: pre-established 24 h biofilms, 24 h treatment
Method: Gardnerella vaginalis 14018 ATCC strain was obtained from ATCC. Salivary MUC5B mucin was isolated and purified as described previously. Galactose and D-Fucose were obtained from Sigma-Aldrich. AnaeroPacks were purchased from VWR. Prior to the experiment, MUC5B mucin was weighed out and solubilized to desired concentration on a shaker overnight. To establish mature biofilms, an overnight preculture of Gardnerella vaginalis ATCC 14018 was diluted 1:20 into fresh NYC III medium with 1% glucose and incubated at 37° C. in the anaerobic chamber for 24 h. Before adding fresh solutions, a set of triplicate wells was sacrificed to quantify cell counts in supernatant and biofilm fraction at the 24 h timepoint. The spent supernatant was gently drained from the rest of the wells and fresh medium or mucin/monosaccharide solutions in medium were added on top of the bacterial biomass. Plate was gently rocked (100 rpm) for 24 h in the anaerobic atmosphere (generated with AnaeroPack, Mitsubishi in the airtight container) in the 37° C. incubator. After 24 h, the supernatant was removed into a separate plate and the biofilms were washed twice with […], sterile phosphate-buffer saline (PBS) and washes were combined with the supernatant (=supernatant fraction). Another […], of PBS was added to the biofilms, each well was vigorously scraped with P20 tip for 20 s and scraped biomass pipetted up and down to homogenize the solution (=biofilm fraction). Both supernatant and biofilm solutions were serially diluted, plated on BHI-agar (BHI=brain-heart infusion, 1.5% agar) and incubated in the anaerobic chamber 37° C. incubator. Colonies were counted after ˜48 h.

[3] = tested on: G. vaginalis 14018; experiment: Biofilm formation of G. vaginalis 14018 in polystyrene plates (CFU assay); assay type: cell-based, Gardnerella vaginalis; conditions: for effect on (proportional) biofilm formation, in words: G. vaginalis 14018, 24 hour biofilms, NYCIII media; for reduction of biofilm formation: G. vaginalis 14018, NYCIII media, anaerobic, 24 h, 0.2 wt %
[4] = tested on: G. vaginalis 14018; experiment: Total growth of G. vaginalis 14018 (CFU assay); assay type: cell-based, Gardnerella vaginalis; conditions: for effect on total growth, in words: G. vaginalis 14018, NYCIII media (contains 1% glucose), soluble additive; for effect on growth in media without glucose, in words: G. vaginalis 14018, NYCIII media without glucose (data not shown); for suppression of growth: G. vaginalis 14018, glucose-rich NYCIII media, 0.2 wt % soluble monosaccharide
[5] = tested on: Gardnerella vaginalis mature biofilms; experiment: Minimum biofilm eradication assay with metronidazole; assay type: cell-based; conditions: 0.2 wt % monosaccharide with metronidazole concentration series, established biofilms, 24 h
Method: Mature biofilms of Gardnerella vaginalis were established as described above. On a separate plate serial dilution of metronidazole alone or in combination with 0.2 wt % Gal/D-Fuc were prepared in NYC III 1% Glc medium. Negative controls (no metronidazole) were also included on the plate. After spent supernatant was drained from mature biofilms, 100 μL, of metronidazole/metronidazole-monosaccharide or negative controls solutions were added to the biofilms and plate was rocked (100 rpm) for 24 h in the anaerobic atmosphere (generated with AnaeroPack, Mitsubishi in the airtight container) in the 37° C. incubator. After 24 h incubation, the CFUs of supernatant and biofilm fractions were quantified as described in the biofilm disruption experiment.

[6] = tested on: Gardnerella vaginalis 49145; experiment: Total growth of G. vaginalis 49145 (CFU assay); assay type: cell-based; conditions: G. vaginalis 49145, glucose-rich media

| Molecule | effect on biofilm formation, in words [1] | viable cell counts in supernatant / biofilm fractions, in words [2] | effect on (proportional) biofilm formation, in words [3] | reduction of biofilm formation [3] [%] | effect on total growth, in words [4] | other results |
| --- | --- | --- | --- | --- | --- | --- |
| C[C@@H](O)[C@H](O)[C@H](O)[C@@H](O)C=O [D-fucose, 6-deoxy-D-galactose] | reduction of biofilm formation | reduction in viable cells in both biofilm and supernatant fractions | inhibit biofilm formation | 72 | limited G. vaginalis growth in glucose-rich media; also recorded: reduced the overall growth | effect on (proportional) biofilm formation, in words ([3]; listed as D-Fuc): significantly reduced proportional biofilm formation; effect on growth in media without glucose, in words [4]: did not diminish; suppression of growth [4]: 75%; effect in combination with metronidazole on biofilm eradication, in words ([5]; listed as D-Fuc): synergistic effect; effect in combination with metronidazole on biofilm eradication, in words ([5]; listed as D-Fucose): potentiate the action of antibiotic metronidazole; effect on total growth, in words [6]: suppressed the growth |
| CC(=O)N[C@H]1C(O)O[C@H](CO)[C@H](O)[C@@H]1O (stereo partly drawn) [GalNAc, N-acetyl D-galactosamine, reference compound] | – | – | only galactose was able to reduce proportional biofilm formation | – | have no effect | – |
| CC(=O)N[C@H]1C(O)O[C@H](CO)[C@@H](O)[C@@H]1O (stereo partly drawn) [GlcNAc, N-acetyl D-glucosamine, reference compound] | – | – | only galactose was able to reduce proportional biofilm formation | – | have no effect | – |
| C[C@H](O)[C@@H](O)[C@@H](O)[C@H](O)C=O [L-Fuc, L-fucose, reference compound] | – | – | only galactose was able to reduce proportional biofilm formation | – | – | – |
| CC(=O)N[C@H]1[C@H]([C@H](O)[C@H](O)CO)OC(O)(C(=O)O)C[C@@H]1O (stereo partly drawn) [NeuNAc, N-acetyl D-neuraminic acid, reference compound] | – | – | only galactose was able to reduce proportional biofilm formation | – | – | – |
| O=C[C@H](O)[C@@H](O)[C@@H](O)[C@H](O)CO [galactose, D-galactose] | reduction of biofilm formation | reduction in viable cells in both biofilm and supernatant fractions | inhibit biofilm formation; also recorded: significantly reduced proportional biofilm formation | 85 | limited G. vaginalis growth in glucose-rich media; also recorded: reduced the overall growth | effect on growth in media without glucose, in words [4]: did not diminish; suppression of growth [4]: 90%; effect in combination with metronidazole on biofilm eradication, in words [5]: potentiate the action of antibiotic metronidazole; effect in combination with metronidazole on biofilm eradication, in words ([5]; listed as Gal): synergistic effect |
| MUC5B: mucin glycoprotein, predominant in cervicovaginal fluid, purified from pooled human saliva and reconstituted into gels | reduction of biofilm formation | increase in the cell counts in the supernatant | limited its biofilm formation, toxin production, and killing of endocervical cells; also recorded: reduces relative biofilm formation | 76 | did not limit the growth of the bacteria; also recorded: did not have any detrimental impact | disruption of established biofilms, in words ([2]; pre-established biofilms): disrupt established biofilms; effect on (proportional) biofilm formation, in words ([3]; listed as mucin): inhibit biofilm formation |
